# Where two headings read alike, the source gives them in different places. Marks after values point to notes of the source that are not given here.
# What was measured:
# [1] = tested on: methicillin-sensitive Staphylococcus aureus (MSSA, ATCC6538 strain); assay: Mouse metal implant joint infection model, colony counts from pin and femur; format: in vivo; conditions: for Femur Mean Log10 CFU / Log10 CFU Reduction vs. day 14 control, Femur / Log10 CFU Reduction vs. day 14 control, Pin / Pin Mean Log10 CFU: day 14
# Text: In this example, female mice aged 8-10 weeks were used and randomly grouped. Before the start of drug administration treatment, each mouse underwent a surgery involving the placement of a metal implant into the femoral-tibial joint and an intraarticular inoculation of methicillin-sensitive Staphylococcus aureus (MSSA, ATCC6538 strain) at the surgical site. Therapeutic agents were formulated as follows: • (1) compound of formula (I): when used as a therapeutic agent for intraarticular injection (IA), the compound was dissolved in 5% dextrose in water (D5W) and formulated to the required concentrations; when used as a therapeutic agent for intraperitoneal injection (IP), the compound was dissolved in a solvent system of ethanol/NaHCO3/6% Cremophor and formulated to the required concentrations; (2) vancomycin: the drug was dissolved in sterile water for injection (WFI) and formulated to the required concentration to obtain a therapeutic agent for intraarticular injection. [table] Samples were obtained from the surgical and inoculation sites of the mice, and colony counts are performed on the agar plates. The number of colonies converted to CFU/tissue by multiplying the number of colonies by the volume of the homogenate spotted and the dilution at which the colonies were counted (5-50 colonies/spot). The resulting value was expressed as log10 CFU/tissue and used to calculate the mean and standard deviations (the results are shown in Table 1).
# [2] = tested on: methicillin-resistant Staphylococcus aureus (MRSA, ATCC43300 strain); assay: Rat PJI model: CFU count, scanning electron microscopy of prosthesis, H&E pathology of synovium; format: in vivo; conditions: for Tissue bacterial load in bone tissue / Tissue bacterial load in prosthesis / Tissue bacterial load in soft tissue: QD × 14 days, sample D 21
# Text: In this example, rats aged about 17 weeks were used. Before the start of drug administration treatment, each rat underwent an aseptic surgery to insert an artificial prosthesis into the knee joint, followed by an intraarticular inoculation of methicillin-resistant Staphylococcus aureus (MRSA, ATCC43300 strain) at the surgical site.
# [3] = tested on: MRSA ATCC43300 strain; assay: MIC (minimum inhibitory concentration) determination; format: cell-based; conditions: Staphylococcus aureus, read-out: MIC (minimum inhibitory concentration)
# [4] = tested on: Staphylococcus epidermidis; assay: Biofilm bactericidal activity MBBC90; format: cell-based; conditions: against Staphylococcus epidermidis
# [5] = Pharmacokinetics after single intraarticular injection in beagle dogs (plasma and synovial fluid); format: in vivo; conditions: both sexes, dog, single intraarticular injection 3 mg/kg; for AUC(0-t) / Cmax / Tmax / half-life: mean
# Experimental: In this example, an experiment with an animal model of male and female beagle dogs was used to evaluate the pharmacokinetic behavior after a single intraarticular injection of the compound of formula (I) in the knee. A total of 6 beagle dogs (3 males and 3 females) were used for this experiment. The experimental animals received a single intraarticular injection of 3 mg/kg of the compound of formula (I) in the left joint, and a single intraarticular injection of 0.1 mL/kg of the vehicle (injection solution of 5% dextrose in water) in the right joint. From the experimental animals, plasma samples were collected before administration (0 hour) and at 0.25 hour (15 minutes), 3 hours, 9 hours, 12 hours, 24 hours, 36 hours, 48 hours, and 72 hours after administration, and left knee synovial fluid samples were collected at 12 hours, 36 hours, and 60 hours after administration. The concentrations of the compound of formula (I) in the plasma and synovial fluid samples were determined using high-performance liquid chromatography-tandem mass spectrometry (LC-MS/MS).
# [6] = tested on: Staphylococcus aureus; assay: Biofilm bactericidal activity MBBC90; format: cell-based; conditions: against Staphylococcus aureus
# [7] = tested on: Staphylococcus aureus; assay: MIC90; format: cell-based; conditions: against Staphylococcus aureus
# [8] = tested on: Staphylococcus epidermidis; assay: MIC90; format: cell-based; conditions: against Staphylococcus epidermidis
# [9] = 45 mg/kg, 25 μL IA, QD × 7 days
# [10] = 5 mg/kg, 0.2 mL IP, BID × 7 days
# [11] = 15 mg/kg, 0.2 mL IP, BID × 7 days
# [12] = 15 mg/kg, 25 μL IA, QD × 7 days
# [13] = 45 mg/kg, 0.2 mL IP, BID × 7 days
# [14] = intraarticular administration, all IA dose groups (5-45 mg/kg)
# [15] = group T2.5, 2.5 mg/kg intraarticular
# [16] = group T5, 5 mg/kg intraarticular
# [17] = group T10, 10 mg/kg intraarticular
smiles,measurement,setting,value
"CN[C@H](CC(C)C)C(=O)N[C@H]1C(=O)N[C@@H](CC(N)=O)C(=O)N[C@H]2C(=O)N[C@H]3C(=O)N[C@H](C(=O)N[C@H](C(=O)O)c4cc(O)cc(O)c4-c4cc3ccc4O)[C@H](O)c3ccc(c(Cl)c3)Oc3cc2cc(c3O[C@@H]2O[C@H](CO)[C@@H](O)[C@H](O)[C@H]2O[C@H]2C[C@](C)(N)[C@H](O)[C@H](C)O2)Oc2ccc(cc2Cl)[C@H]1O [Vancomycin, reference compound]",Femur Mean Log10 CFU,[1]; [9],6.08 Log10 CFU
same,"Log10 CFU Reduction vs. day 14 control, Femur",[1]; [9],−0.80 Log10 CFU
same,"Log10 CFU Reduction vs. day 14 control, Pin",[1]; [9],−1.28 Log10 CFU
same,Pin Mean Log10 CFU,[1]; [9],3.49 Log10 CFU
same,Tissue bacterial load in bone tissue,"[2]; group Van, 44 mg/kg",11733 ± 8583 CFU
same,Tissue bacterial load in prosthesis,"[2]; group Van, 44 mg/kg",1783 ± 1136 CFU
same,Tissue bacterial load in soft tissue,"[2]; group Van, 44 mg/kg",1050 ± 1174 CFU
same,pathological H&E staining of the synovial soft tissue (FIG. 2B),"[2]; vancomycin group, 44 mg/kg",a significant reduction in inflammatory cell infiltration in the synovium
same,scanning electron microscopy observation of prosthesis (FIG. 2A),"[2]; vancomycin treatment group, 44 mg/kg",a relatively large number of bacteria still remained
same,MIC,[3],0.5 µg/mL
CO[C@H]1/C=C/O[C@@]2(C)Oc3c(C)c(O)c4c(O)c(c(/C=N/N5CCC(N(C)C6([C@@H]7CCN(c8c(F)cn9c(=O)c(C(=O)O)cc(C%10CC%10)c9c8C)C7)CC6)CC5)c(O)c4c3C2=O)NC(=O)/C(C)=C\C=C\[C@H](C)[C@H](O)[C@@H](C)[C@@H](O)[C@@H](C)[C@H](OC(C)=O)[C@@H]1C [compound of formula (I)],biofilm bactericidal activity MBBC90,[4],250 ng/mL
same,AUC(0-t),[5]; plasma,20.8 ± 7.15 µg·h/mL
same,Cmax,[5]; plasma,736 ± 247 ng/mL
same,Tmax,[5]; plasma,24 h
same,half-life,[5]; plasma,12 h
same,AUC(0-t),[5]; synovial fluid,1000 ± 1050 µg·h/mL
same,Cmax,[5]; synovial fluid,77400 ± 81900 ng/mL
same,Tmax,[5]; synovial fluid,12 h
same,half-life,[5]; synovial fluid,6.81 h
same,Kp,"[5]; synovial fluid/plasma, read-out: AUC ratio = AUC0-last in synovial fluid/AUC0-last in plasma",46.1
same,Femur Mean Log10 CFU,[1]; [10],6.51 Log10 CFU
same,"Log10 CFU Reduction vs. day 14 control, Femur",[1]; [10],−0.37 Log10 CFU
same,"Log10 CFU Reduction vs. day 14 control, Pin",[1]; [10],−0.51 Log10 CFU
same,Pin Mean Log10 CFU,[1]; [10],4.26 Log10 CFU
same,Femur Mean Log10 CFU,"[1]; 5 mg/kg, 25 μL IA, QD × 7 days",5.17 Log10 CFU
same,"Log10 CFU Reduction vs. day 14 control, Femur","[1]; 5 mg/kg, 25 μL IA, QD × 7 days",−1.71 Log10 CFU
same,"Log10 CFU Reduction vs. day 14 control, Pin","[1]; 5 mg/kg, 25 μL IA, QD × 7 days",−2.50 Log10 CFU
same,Pin Mean Log10 CFU,"[1]; 5 mg/kg, 25 μL IA, QD × 7 days",2.27 Log10 CFU
same,Femur Mean Log10 CFU,[1]; [11],5.33 Log10 CFU
same,"Log10 CFU Reduction vs. day 14 control, Femur",[1]; [11],−1.55 Log10 CFU
same,"Log10 CFU Reduction vs. day 14 control, Pin",[1]; [11],−2.25 Log10 CFU
same,Pin Mean Log10 CFU,[1]; [11],2.52 Log10 CFU
same,Femur Mean Log10 CFU,[1]; [12],3.76 Log10 CFU
same,"Log10 CFU Reduction vs. day 14 control, Femur",[1]; [12],−3.12 Log10 CFU
same,"Log10 CFU Reduction vs. day 14 control, Pin",[1]; [12],−2.54 Log10 CFU
same,Pin Mean Log10 CFU,[1]; [12],2.23 Log10 CFU
same,Femur Mean Log10 CFU,[1]; [13],3.42 Log10 CFU
same,"Log10 CFU Reduction vs. day 14 control, Femur",[1]; [13],−3.46 Log10 CFU
same,"Log10 CFU Reduction vs. day 14 control, Pin",[1]; [13],−2.72 Log10 CFU
same,Pin Mean Log10 CFU,[1]; [13],2.05 Log10 CFU
same,Femur Mean Log10 CFU,[1]; [9],3.46 Log10 CFU
same,"Log10 CFU Reduction vs. day 14 control, Femur",[1]; [9],−3.42 Log10 CFU
same,"Log10 CFU Reduction vs. day 14 control, Pin",[1]; [9],−2.72 Log10 CFU
same,Pin Mean Log10 CFU,[1]; [9],2.05 Log10 CFU
same,mean femur colony counts lower than those in the untreated control animals,[1]; [14],1.71-3.42 log10 CFU
same,mean pin colony counts lower than those in the untreated control animals,[1]; [14],2.5-2.72 logo CFU
same,biofilm bactericidal activity MBBC90,[6],2000 ng/mL
same,MIC90,[7],0.015 µg/mL
same,Tissue bacterial load in bone tissue,[2]; [15],7083 ± 6280 CFU
same,Tissue bacterial load in prosthesis,[2]; [15],550 ± 207 CFU
same,Tissue bacterial load in soft tissue,[2]; [15],9717 ± 1387 CFU
same,Tissue bacterial load in bone tissue,[2]; [16],1383 ± 1068 CFU
same,Tissue bacterial load in prosthesis,[2]; [16],0 *** CFU
same,Tissue bacterial load in soft tissue,[2]; [16],5433 ± 3194 CFU
same,Tissue bacterial load in bone tissue,[2]; [17],2400 ± 1655 CFU
same,Tissue bacterial load in prosthesis,[2]; [17],0 *** CFU
same,Tissue bacterial load in soft tissue,[2]; [17],1517 ± 1011 CFU
same,pathological H&E staining of the synovial soft tissue (FIG. 2B),"[2]; high-dose group, 10 mg/kg",a significant reduction in inflammatory cell infiltration in the synovium
same,scanning electron microscopy observation of prosthesis (FIG. 2A),"[2]; high-dose group, 10 mg/kg",individual cocci embedded therein
same,scanning electron microscopy observation of prosthesis (FIG. 2A),"[2]; low-dose group, 2.5 mg/kg",the formation of a relatively large number of colonies could still be observed
same,scanning electron microscopy observation of prosthesis (FIG. 2A),"[2]; medium-dose group, 5 mg/kg",individual bacteria still present
same,MIC,[3]; MRSA ATCC43300 strain,0.032 µg/mL
same,MIC90,[8],0.008 µg/mL
